For this assay, the target named is MCH receptor (Homo sapiens, UniProt Q99705). The assay can be described thus: High throughput functional screening FLIPR/FDSS6000 (intracellular Ca2+ evoked by MCH). Format: cell-based. To be noted: FLIPR/FDSS, antagonist activity vs 50 nM MCH, class by percent of control at 10^−7 M or IC50, read-out: class. In a few lines:
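For antagonist testing, compound-treated cells (30 min, 37 °C) were stimulated with 50 nM MCH and intracellular Ca2+ followed by Fluo4 fluorescence on FLIPR/FDSS6000. Receptor was a constitutively active, non-endogenous MCH receptor; dye loading 4 μM Fluo4-AM, 1 h, 37 °C.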

The source of these data is US20050197350A1, “Novel quinoline, tetrahydroquinazoline, and pyrimidine derivatives and methods of treatment related to the use thereof” (TAISHO PHARMACEUTICAL CO., LTD., priority 2003, published 2005).

Structures can show the parent of a compound that is named as a salt. Where two headings read alike, the source gives them in different places.

Regarding `CCN(C)c1ccnc(N[C@H]2CC[C@@H](NC(=O)c3ccc(F)c(F)c3)CC2)n1` [Example 3226, N-{cis-4-[4-(Ethyl-methyl-amino)-pyrimidin-2-ylamino]-cyclohexyl}-3,4-difluoro-benzamide hydrochloride], the IC50 (table after the classification) was above 200 nM.
With `Cc1cc(N[C@H]2CC[C@@H](NC(=O)c3ccc(OC(F)(F)F)cc3)CC2)nc2ccccc12` [Example 3382, N-{cis-4-[(4-methylquinolin-2-yl)amino]cyclohexyl}-4-(trifluoromethoxy)benzamide], the IC50 is below 50 nM.
On the same count and under the same terms, with `Cc1cc(N[C@H]2CC[C@@H](C(=O)N[C@H](C)c3ccc(OC(F)(F)F)cc3)CC2)nc2ccccc12` [Example 3310, cis-4-[(4-methylquinolin-2-yl)amino]-N-{(1R)-1-[4-(trifluoromethoxy)phenyl]ethyl}cyclohexanecarboxamide] the figure was above 200 nM.
Turning to `Cc1cnc(N[C@H]2CC[C@@H](NC(=O)N(C)C3(c4ccc(Cl)cc4)CC3)CC2)nc1N(C)C` [Example 3271, N-[1-(4-chlorophenyl)cyclopropyl]-N′-(cis-4-{[4-(dimethylamino)-5-methylpyrimidin-2-yl]amino}cyclohexyl)-N-methylurea], the IC50 was 50 to 200 nM.
Regarding `O=C(N[C@H]1CC[C@@H](Nc2ccc3ccccc3n2)CC1)C(c1ccccc1)c1ccccc1` [Example 3052, 2,2-Diphenyl-N-[cis-4-(quinolin-2-ylamino)-cyclohexyl]-acetamide hydrochloride], the IC50 (table after the classification) is below 50 nM.
Same read-out and setting: with `O=C(N[C@H]1CC[C@@H](Nc2ccc3ccccc3n2)CC1)c1cccc([N+](=O)[O-])c1` [Example 3045, 3-Nitro-N-[cis-4-(quinolin-2-ylamino)-cyclohexyl]-benzamide hydrochloride] the figure was below 50 nM.
As for `Cc1cnc(N[C@H]2CC[C@@H](NC(=O)[C@@H]3C[C@H]3c3cc(C(F)(F)F)cc(C(F)(F)F)c3)CC2)nc1N(C)C` (relative stereo) [Example 3320, trans-2-[3,5-bis(trifluoromethyl)phenyl]-N-(cis-4-{[4-(dimethylamino)-5-methylpyrimidin-2-yl]amino}cyclohexyl)-cyclopropanecarboxamide], the IC50 is below 50 nM.
On the same count and under the same terms, with `CNc1cc(C)nc(N[C@H]2CC[C@@H](NC(=O)COc3ccc(Cl)c(Cl)c3)CC2)n1` [Example 3360, 2-(3,4-dichlorophenoxy)-N-(cis-4-{[4-methyl-6-(methylamino)pyrimidin-2-yl]amino}cycohexyl)acetamide] the figure was below 50 nM.
On to `CN(C)c1ccnc(N[C@H]2CC[C@@H](NC(=O)c3ccc(F)cc3)CC2)n1` [Example 3214, N-[cis-4-(4-Dimethylamino-pyrimidin-2-ylamino)-cyclohexyl]-4-fluoro-benzamide hydrochloride], for which, where the note is “table after the classification”, the IC50 was in the range of 50 to 200 nM.
In the case of `CN(C)c1nc(N[C@H]2CC[C@@H](CNC(=O)c3ccc(F)c(F)c3)CC2)nc2c1CCCC2` [Example 3195, N-[cis-4-(4-Dimethylamino-5,6,7,8-tetrahydro-quinazolin-2-ylamino)-cyclohexylmethyl]-3,4-difluoro-benzamide hydrochloride], where the note is “table after the classification”, the IC50 lay within 50 to 200 nM.
On the same count and under the same terms, with `CN(C)c1cc(N[C@H]2CC[C@@H](NC(=O)c3cccnc3Oc3ccccc3)CC2)nc2ccccc12` [Example 3114, N-[cis-4-(4-Dimethylamino-quinolin-2-ylamino)-cyclohexyl]-2-phenoxy-nicotinamide hydrochloride] the figure was below 50 nM.
As to `Cc1cc(N[C@H]2CC[C@@H](C(=O)N[C@@H](C)c3cccc(C(F)(F)F)c3)CC2)nc2ccccc12` [Example 3315, cis-4-[(4-methylquinolin-2-yl)amino]-N-{(1S)-1-[3-(trifluoromethyl)phenyl]ethyl}cyclohexanecarboxamide], the IC50 was below 50 nM.
In the case of `O=C(N[C@H]1CC[C@@H](Nc2ccc3ccccc3n2)CC1)c1ccc2nonc2c1` [Example 3041, Benzo[2,1,3]oxadiazole-5-carboxylic acid-[cis-4-(quinolin-2-ylamino)-cyclohexyl]-amide hydrochloride], for the setting “table after the classification”, the IC50 was below 50 nM.
Take `COc1nc(N[C@H]2CC[C@@H](NC(=O)c3ccc(Cl)c(Cl)c3)CC2)ncc1C` [Example 3278, 3,4-dichloro-N-{cis-4-[(4-methoxy-5-methylpyrimidin-2-yl)amino]cyclohexyl}benzamide]: the IC50 lay within 50 to 200 nM.
As for `CN(C)c1nc(N[C@H]2CC[C@@H](C(N)Cc3ccccc3OC(F)(F)F)CC2)nc2c1CCCC2` (relative stereo) [Example 16, N^4,N^4-Dimethyl-N^2-{cis-4-[(2-trifluoromethoxy-benzyl)-amino-methyl]-cyclohexyl}-5,6,7,8-tetrahydro-quinazoline-2,4-diamine dihydrochloride], the IC50 (table after the classification) is below 50 nM.
In the case of `Cc1ccc(Oc2ncccc2C(=O)N[C@H]2CC[C@@H](Nc3ccc4ccccc4n3)CC2)cc1` [Example 3056, N-[cis-4-(Quinolin-2-ylamino)-cyclohexyl]-2-p-tolyloxy-nicotinamide hydrochloride], for the setting “table after the classification”, the IC50 was below 50 nM.
Same read-out and setting: with `O=C(O)c1cccc(C(=O)N[C@H]2CC[C@@H](Nc3ccc4ccccc4n3)CC2)c1` [Example 3150, N-[cis-4-(Quinolin-2-ylamino)-cyclohexyl]-isophthalamic acid] the figure was above 200 nM; with `CN(C)c1ccnc(N[C@H]2CC[C@@H](NC(=O)c3csc([N+](=O)[O-])c3)CC2)n1` [Example 3198, 5-Nitro-thiophene-3-carboxylic acid [cis-4-(4-dimethylamino-pyrimidine-2-ylamino)-cyclohexyl]-amide hydrochloride], below 50 nM.
Same read-out and setting: with `O=C(N[C@H]1CC[C@@H](Nc2ccc3ccccc3n2)CC1)c1cccnc1Oc1ccc(F)c(Cl)c1` [Example 3060, 2-(3-Chloro-4-fluoro-phenoxy)-N-[cis-4-(quinolin-2-ylamino)-cyclohexyl]-nicotinamide hydrochloride] the figure was 50 to 200 nM; with `CNc1ccnc(N[C@H]2CC[C@@H](NC(=O)c3ccc(F)c(F)c3)CC2)n1` [Example 3223, 3,4-Difluoro-N-[cis-4-(4-methylamino-pyrimidin-2-ylamino)-cyclohexyl]-benzamide-hydrochloride], above 200 nM.
`Cc1cnc(N[C@H]2CC[C@@H](C(=O)N[C@@H](C)c3ccccc3F)CC2)nc1N(C)C` [Example 3295, cis-4-{[4-(dimethylamino)-5-methylpyrimidin-2-yl]amino}-N-[(1S)-1-(2-fluorophenyl)ethyl]cyclohexanecarboxamide]: the IC50 is above 200 nM.
As to `CN(C)c1nc(N[C@H]2CC[C@@H](NC(=O)c3cccnc3Oc3ccccc3)CC2)ncc1Br` [Example 3141, N-[cis-4-(5-Bromo-4-dimethylamino-pyrimidin-2-ylamino)-cyclohexyl]-2-phenoxy-nicotinamide hydrochloride], the IC50 (table after the classification) was in the range of 50 to 200 nM.
For `Cc1cc(N[C@H]2CC[C@@H](NC(=O)c3cc(Cl)ccn3)CC2)nc2ccccc12` [Example 3184, 4-Chloro-pyridine-2-carboxylic acid [cis-4-(4-methyl-quinolin-2-ylamino)-cyclohexyl]-amide hydrochloride], under “table after the classification”, the IC50 fell in the range of 50 to 200 nM.
`Cc1cccc(OCC(=O)N[C@H]2CC[C@@H](Nc3ccc4ccccc4n3)CC2)c1` [Example 3051, N-[cis-4-(Quinolin-2-ylamino)-cyclohexyl]-2-m-tolyloxy-acetamide hydrochloride]: the IC50 (table after the classification) is below 50 nM.
With `Cc1cnc(N[C@H]2CC[C@@H](C(=O)N[C@@H](C)c3ccc(Cl)cc3)CC2)nc1N(C)C` [Example 3292, cis-N-[(1S)-1-(4-chlorophenyl)ethyl]-4-{[4-(dimethylamino)-5-methylpyrimidin-2-yl]amino}cyclohexanecarboxamide], the IC50 was 50 to 200 nM.
Still for that read-out and setting: with `COc1ccc(S(=O)(=O)c2ncccc2C(=O)N[C@H]2CC[C@@H](Nc3ncc(C)c(N(C)C)n3)CC2)cc1` [Example 3286, N-(cis-4-{[4-(dimethylamino)-5-methylpyrimidin-2-yl]amino}cyclohexyl)-2-[(4-methoxyphenyl)sulfonyl]-nicotinamide] the figure was above 200 nM.
Take `Cc1cc(N[C@H]2CC[C@@H](NC(=O)c3cccc(OC(F)(F)F)c3)CC2)nc2ccccc12` [Example 3158, N-[cis-4-(4-Methyl-quinolin-2-ylamino)-cyclohexyl]-3-trifluoromethoxy-benzamide hydrochloride]: under “table after the classification”, the IC50 is below 50 nM.
On to `CN(C)c1ccnc(N[C@H]2CC[C@@H](NC(=O)c3ccc(F)c(Cl)c3)CC2)n1` [Example 3206, 3-Chloro-N-[cis-4-(4-dimethylamino-pyrimidin-2-ylamino)-cyclohexyl]-4-fluoro-benzamide hydrochloride], for which the IC50 (table after the classification) was below 50 nM.
As for `Cc1cc(N[C@H]2CC[C@@H](NC(=O)c3cc(F)cc(Cl)c3)CC2)nc2ccccc12` [Example 3179, 3-Chloro-5-fluoro-N-[cis-4-(4-methyl-quinolin-2-ylamino)-cyclohexyl]-benzamide hydrochloride], the IC50 (table after the classification) is below 50 nM.
For `O=C(N[C@H]1CC[C@@H](Nc2ccc3ccccc3n2)CC1)c1csc([N+](=O)[O-])c1` [Example 3036, 5-Nitro-thiophene-3-carboxylic acid [cis-4-(quinolin-2-ylamino)-cyclohexyl]-amide hydrochloride], the IC50 (table after the classification) was below 50 nM.
In the case of `Cc1cc(N[C@H]2CC[C@@H](C(=O)N[C@@H](C)c3ccccc3F)CC2)nc2ccccc12` [Example 3312, cis-N-[(1S)-1-(2-fluorophenyl)ethyl]-4-[(4-methylquinolin-2-yl)amino]cyclohexanecarboxamide], the IC50 is below 50 nM.
`CCN(CC(=O)N[C@H]1CC[C@@H](Nc2ccc3ccccc3n2)CC1)c1ccccc1` [Example 3151, C-(Ethyl-phenyl-amino)-N-[cis-4-(quinolin-2-ylamino)-cyclohexyl]-acetamide dihydrochloride]: the IC50 (table after the classification) was below 50 nM.
